The values below come from patent US9469615B2, “Quinoxalines and AZA-quinoxalines as CRTH2 receptor modulators” (Merck Sharp & Dohme Corp., priority 2010, dated 2016).

The assay concerns the target T1, hCRTH2 (Homo sapiens, UniProt Q9Y5Y4).
T1 construct: expressed in transfected cells; host or cells: HEK (human embryonic kidney) cells expressing hCRTH2; membrane preparation
T1 sequence (Q9Y5Y4 1-395): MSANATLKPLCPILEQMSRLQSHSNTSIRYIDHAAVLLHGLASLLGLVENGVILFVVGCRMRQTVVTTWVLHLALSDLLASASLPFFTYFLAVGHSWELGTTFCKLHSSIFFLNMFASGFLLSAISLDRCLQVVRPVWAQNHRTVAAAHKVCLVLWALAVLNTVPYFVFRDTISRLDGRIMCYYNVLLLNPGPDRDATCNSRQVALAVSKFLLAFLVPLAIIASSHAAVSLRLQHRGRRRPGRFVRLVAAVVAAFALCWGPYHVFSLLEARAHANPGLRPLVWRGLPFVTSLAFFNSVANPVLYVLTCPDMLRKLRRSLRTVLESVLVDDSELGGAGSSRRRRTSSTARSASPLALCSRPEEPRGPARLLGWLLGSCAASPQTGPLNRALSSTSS
Put plainly: Radioligand binding assay ([3H]PGD2 competition, HEK-hCRTH2 membranes). The note with it: [3H]PGD2 binding, rated A-E (Table A). The method in brief:
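Membranes (8-20 μg protein) from HEK-hCRTH2 cells were incubated 60 min at room temperature with 3.0 nM [3H]PGD2 in 50 mM Tris-HCl pH 7.4, 1 mM EDTA, 2 mM MnCl2, 1% DMSO. Non-specific binding defined with 10 μM PGD2. Bound radioactivity counted after filtration.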

Each structure is given as a SMILES string.

Consider `CC(CCc1nc2cc(C(=O)N3CC[C@H](c4ccccc4)C3)ccc2nc1-c1ccc(C(F)(F)F)cc1)CC(=O)O` (stereo partly drawn) [17U, beta-methyl-7-[(3(R)-phenyl-1-pyrrolidinyl)carbonyl]-3-[4-(trifluoromethyl)phenyl]-2-quinoxalinepentanoic acid], for which the Ki – broadly, the equilibrium dissociation constant of an inhibitor or competing ligand from its target – fell in the range of 2.1 to 20 nM.

With `CC(CCc1nc2cc(C(=O)N3CC[C@@H](c4ccccc4)C3)ccc2nc1-c1ccc(C(F)(F)F)cc1)CC(=O)O` (stereo partly drawn) [17V, beta-methyl-7-[(3(S)-phenyl-1-pyrrolidinyl)carbonyl]-3-[4-(trifluoromethyl)phenyl]-2-quinoxalinepentanoic acid], the Ki was in the range of 0.1 to 2 nM.

Take `CC(CCc1nc2cc(C(=O)N3CC(c4ccccc4)C3)ccc2nc1-c1ccc(C(F)(F)F)cc1)CC(=O)O` (stereo not drawn) [17W, beta-methyl-7-[(3-phenyl-1-azetidinyl)carbonyl]-3-[4-(trifluoromethyl)phenyl]-2-quinoxalinepentanoic acid]: the Ki was in the range of 0.1 to 2 nM.

On to `CC(CCc1nc2cc(C(=O)NCc3ccc(Cl)cc3)ccc2nc1-c1ccc(C(F)(F)F)cc1)CC(=O)O` (stereo not drawn) [17X, 7-[[[(4-chlorophenyl)methyl]amino]carbonyl]-beta-methyl-3-[4-(trifluoromethyl)phenyl]-2-quinoxalinepentanoic acid], for which the Ki is 2.1 to 20 nM.

For `CC(CCc1nc2cc(C(=O)NCc3ccc(OC(F)(F)F)cc3)ccc2nc1-c1ccc(C(F)(F)F)cc1)CC(=O)O` (stereo not drawn) [17Y, beta-methyl-7-[[[[4-(trifluoromethoxy)phenyl]methyl]amino]carbonyl]-3-[4-(trifluoromethyl)phenyl]-2-quinoxalinepentanoic acid], the Ki lay within 2.1 to 20 nM.

As for `CC(CCc1nc2cc(C(=O)NCc3ccc(C#N)cc3)ccc2nc1-c1ccc(C(F)(F)F)cc1)CC(=O)O` (stereo not drawn) [17Z, 7-[[[(4-cyanophenyl)methyl]amino]carbonyl]-beta-methyl-3-[4-(trifluoromethyl)phenyl]-2-quinoxalinepentanoic acid], the inhibitory constant (Ki) lay within 2.1 to 20 nM.

`CC(CCc1nc2cc(C(=O)N3CCC[C@@H](c4ccccc4)C3)ccc2nc1-c1ccc(Cl)cc1)CC(=O)O` (stereo partly drawn) [17i, 3-(4-chlorophenyl)-beta-methyl-7-[(3(S)-phenyl-1-piperidinyl)carbonyl]-2-quinoxalinepentanoic acid] registered a Ki of 2.1 to 20 nM.

The molecule `COc1ccc([C@@H](C)NC(=O)c2ccc3nc(-c4ccc(Cl)cc4)c(CCC(C)CC(=O)O)nc3c2)cc1` (stereo partly drawn) [17o, 3-(4-chlorophenyl)-7-[[[1(R)-(4-methoxyphenyl)ethyl]amino]carbonyl]-beta-methyl-2-quinoxaline pentanoic acid] displayed a Ki of 0.1 to 2 nM.

On to `CC(CCCc1nc2cc(C(=O)NCc3cccc(Cl)c3)ccc2nc1-c1ccc(C(F)(F)F)cc1)C(=O)O` (stereo not drawn) [18D, 7-[[[(3-chlorophenyl)methyl]amino]carbonyl]-alpha-nethyl-3-[4-(trifluoromethyl)phenyl]-2-quinoxalinepentanoic acid], for which the Ki is 2.1 to 20 nM.

Molecule `CC(CCCc1nc2cc(C(=O)N3CC[C@@H](c4ccccc4)C3)ccc2nc1-c1ccc(C(F)(F)F)cc1)C(=O)O` (stereo partly drawn) [18E, alpha-methyl-7-[(3(S)-phenyl-1-pyrrolidinyl)carbonyl]-3-[4-(trifluoromethyl)phenyl]-2-quinoxalinepentanoic acid] returned a Ki of 0.1 to 2 nM.

For the molecule `CC(CCCc1nc2cc(C(=O)N3CC[C@H](c4ccccc4)C3)ccc2nc1-c1ccc(C(F)(F)F)cc1)C(=O)O` (stereo partly drawn) [18F, alpha-methyl-7-[(3(R)-phenyl-1-pyrrolidinyl)carbonyl]-3-[4-(trifluoromethyl)phenyl]-2-quinoxalinepentanoic acid], the inhibition constant Ki fell in the range of 2.1 to 20 nM.

`CC(CCCc1nc2cc(C(=O)NC3Cc4ccccc4C3)ccc2nc1-c1ccc(C(F)(F)F)cc1)C(=O)O` (stereo not drawn) [18G, 7-[[(2,3-dihydro-1H-inden-2-yl)amino]carbonyl]-alpha-methyl-3-[4-(trifluoromethyl)phenyl]-2-quinoxalinepentanoic acid] registered a Ki of 0.1 to 2 nM.

`CC(CCCc1nc2cc(C(=O)N[C@@H](c3ccccc3)C(F)(F)F)ccc2nc1-c1ccc(C(F)(F)F)cc1)C(=O)O` (stereo partly drawn) [18H, alpha-methyl-3-[4-(trifluoromethyl)phenyl]-7-[[(2,2,2-trifluoro-1(S)-phenylethyl)amino]carbonyl]-2-quinoxalinepentanoic acid] yielded a Ki of 2.1 to 20 nM.

For the molecule `N#Cc1ccc(CNC(=O)c2ccc3nc(-c4ccc(Cl)cc4)c(CCc4cccc(CC(=O)O)c4)nc3c2)cc1` [19F, 3-[2-[3-(4-chlorophenyl)-7-[[[(4-cyanophenyl)methyl]amino]carbonyl]-2-quinoxalinyl]ethyl] benzeneacetic acid], the inhibitory constant (Ki) was 2.1 to 20 nM.

As to `C[C@@H](NC(=O)c1ccc2nc(-c3ccc(Cl)cc3)c(CCc3cccc(CC(=O)O)c3)nc2c1)c1ccc(F)cc1` [19G, 3-[2-[3-(4-chlorophenyl)-7-[[[1(R)-(4-fluorophenyl)ethyl]amino]carbonyl]-2-quinaxalinyl]ethyl] benzeneacetic acid], the Ki lay within 2.1 to 20 nM.

Molecule `C[C@H](NC(=O)c1ccc2nc(-c3ccc(Cl)cc3)c(CCc3cccc(CC(=O)O)c3)nc2c1)c1ccc(F)cc1` [19H, 3-[2-[3-(4-chlorophenyl)-7-[[[1(S)-(4-fluorophenyl)ethyl]amino]carbonyl]-2-quinoxalinyl]ethyl] benzeneacetic acid] registered a Ki of 2.1 to 20 nM.

Regarding `O=C(O)Cc1cccc(CCc2nc3cc(C(=O)N[C@@H](c4ccccc4)C(F)(F)F)ccc3nc2-c2ccc(Cl)cc2)c1` [19J, 3-[2-[3-(4-chlorophenyl)-7-[[(2,2,2-trifluoro-1(S)-phenylethyl)amino]carbonyl]-2-quinoxalinyl]ethyl]benzeneacetic acid], the Ki lay within 20.1 to 200 nM.

As for `O=C(O)Cc1cccc(CCc2nc3cc(C(=O)N4CC(c5ccccc5)C4)ccc3nc2-c2ccc(Cl)cc2)c1` [19K, 3-[2-[3-(4-chlorophenyl)-7-[(3-phenyl-1-azetidinyl)carbonyl]-2-quinoxalinyl]ethyl] benzeneacetic acid], the Ki lay in the range of 2.1 to 20 nM.

Consider `O=C(O)Cc1cccc(CCc2nc3cc(C(=O)NCc4cccc(Cl)c4)ccc3nc2-c2ccc(Cl)cc2)c1` [19i, 3-[2-[3-(4-chlorophenyl)-7-[[[(3-chlorophenyl)methyl]amino]carbonyl]-2-quinoxalinyl]ethyl] benzeneacetic acid], for which the Ki lay in the range of 2.1 to 20 nM.

`C[C@@H](c1ccccc1)N(C)C(=O)c1ccc2nc(-c3ccc(F)cc3)c(CCCCC(=O)O)nc2c1` [21C, -(4-fluorophenyl)-7-[[methyl(1(S)-phenylethyl)amino]carbonyl]-2-quinoxalinepentanoic acid] had a Ki of 2.1 to 20 nM.

In the case of `O=C(NCc1cccc(Cl)c1)c1ccc2nc(-c3ccccc3)c(CCCCc3nnn[nH]3)nc2c1` [22D, N-[(3-chlorophenyl)methyl]-2-phenyl-3-[4-(1H-tetrazol-5-yl)butyl]-6-quinoxalinecarboxamide], the Ki fell in the range of 20.1 to 200 nM.

In the case of `O=C(O)CCCCc1nc2cc(C(=O)N3CC[C@@H](c4ccccc4)C3)c(F)cc2nc1-c1ccc(F)cc1` [24H, 6-fluoro-3-(4-fluorophenyl)-7-[(3(S)-phenyl-1-pyrrolidinyl)carbonyl]-2-quinoxalinepentanoic acid], the Ki is 2.1 to 20 nM.

In the case of `O=C(O)CCCCc1nc2cc(C(=O)N3CC[C@@H](c4ccccc4)C3)c(F)cc2nc1-c1ccccc1` [24i, 6-fluoro-3-phenyl-7-[(3(S)-phenyl-1-pyrrolidinyl)carbonyl]-2-quinoxalinepentanoic acid], the Ki is 2.1 to 20 nM.

Molecule `O=C(O)CCCCc1nc2cc(C(=O)N3CCC(c4ccccc4)CC3)ccc2nc1-c1ccc(C(F)(F)F)cc1Cl` [26AA, 3-[2-chloro-4-(trifluoromethyl)phenyl]-7-[(4-phenyl-1-piperidinyl)carbonyl]-2-quinoxalinepentanoic acid] displayed a Ki of 0.1 to 2 nM.

Take `O=C(O)CCCCc1nc2cc(C(=O)N3CCC(c4ccccc4)CC3)ccc2nc1-c1ccc(Br)cc1` [26AB, 3-(4-bromophenyl)-7-[(4-phenyl-1-piperidinyl)carbonyl]-2-quinoxalinepentanoic acid]: the Ki lay in the range of 0.1 to 2 nM.

Turning to `O=C(O)CCCCc1nc2cc(C(=O)N3CCC(c4ccccc4)C3)ccc2nc1-c1cccc(F)c1` (stereo not drawn) [26E, 3-(3-fluorophenyl)-7-[(3-phenyl-1-pyrrolidinyl)carbonyl]-2-quinoxalinepentanoic acid], the Ki is 2.1 to 20 nM.

With `O=C(O)CCCCc1nc2cc(C(=O)N3CCC(c4ccccc4)C3)ccc2nc1-c1cccc(Cl)c1` (stereo not drawn) [26F, 3-(3-chlorophenyl)-7-[(3-phenyl-1-pyrrolidinyl)carbonyl]-2-quinoxalinepentanoic acid], the Ki lay in the range of 2.1 to 20 nM.

In turn, `O=C(O)CCCCc1nc2cc(C(=O)N3CCC(c4ccccc4)C3)ccc2nc1-c1cc(Cl)cc(Cl)c1` (stereo not drawn) [26G, 3-(3,5-dichlorophenyl)-7-[(3-phenyl-1-pyrrolidinyl)carbonyl]-2-quinoxalinepentanoic acid] had an inhibition constant Ki of 2.1 to 20 nM.

Turning to `O=C(O)CCCCc1nc2cc(C(=O)N3CCC(c4ccccc4)C3)ccc2nc1-c1ccc(F)cc1F` (stereo not drawn) [26H, 3-(2,4-difluorophenyl)-7-[(3-phenyl-1-pyrrolidinyl)carbonyl]-2-quinoxalinepentanoic acid], the Ki was in the range of 2.1 to 20 nM.

`O=C(O)CCCCc1nc2cc(C(=O)N3CCC(c4ccccc4)CC3)ccc2nc1-c1cccc(Cl)c1` [26J, 3-(3-chlorophenyl)-7-[(4-phenyl-1-piperidinyl)carbonyl]-2-quinoxalinepentanoic acid] returned an inhibition constant Ki of 0.1 to 2 nM.
